SMILES strings stand for the structures.

Data set [1] relates to HCT116 human colorectal carcinoma cells. As to the kind of experiment: MTT cytotoxicity assay on HCT116 cells. In kind it is cell-based. The conditions noted are these: for IC50: Homo sapiens, HCT-116, HCT116, MTT; for cell viability: HCT116, 72 h, 0.39–25.0 µg/mL. The procedure:
(§1) HCT116 human colorectal cancer cells and CCD841-CoN normal cells were obtained from the American Type Culture Collection (ATCC, Manassas, VA, USA). HCT116 cells and CCD841-CoN normal cells were cultured in RPMI-1640 and EMEM media respectively, with 10% v/v heat-inactivated fetal bovine serum (FBS), 100 µg/mL penicillin streptomycin and 50 µg/mL amphotericin B at 37 °C in 5% CO2 incubator.
(§2) To investigate the cytotoxic effect of each fraction and compounds, the MTT assay was utilized. Cells were seeded and exposed to different concentrations (0.38–25 µg/mL) of each fraction which was dissolved in DMSO. 5-fluorouracil (5-FU) was used as positive control. Untreated cells (negative control) were treated with vehicle dimethyl sulfoxide (DMSO). The final concentration of DMSO was below 0.5% v/v in all experiments. MTT (5 mg/mL) was then added to each well after treatment and incubated for another 4 h at 37 °C. Subsequently, the medium was discarded and replaced by 150 µL of DMSO to dissolve the formazan crystals followed by quantified at 570 nm and 650 nm as a background using a microplate reader (Asys UVM340, Biochrom, Eugendorf, Austria). The percentage of cell viability was calculated according to the following equation: Cell viability percentage (%) = (Absorbance of treated cells/absorbance of untreated cells) × 100%.
In general terms: Tetrazolium dyes change colour on reduction, which living cells bring about.

For data set [2], the system named is CCD841CoN normal colon cells. Briefly: MTT cytotoxicity assay on CCD841CoN normal colon cells. The class given is cell-based, human. The following applies: for IC50: Homo sapiens, CCD-841CoN, MTT, 72 h. The procedure: as §1, §2
A further data set has as its system p21. Briefly: Western blot, p21 in HCT116 cells. The following applies: HCT116, 0.75, 1.5 and 3.0 µg/mL, 24 h. The class given is cell-based, human. The protocol:
(§3) 1 × 10^6 HCT116 cells were plated in 60 mm^2 culture dishes and exposed to varying concentrations of DET (0.75, 1.5 and 3.0 µg/mL) for 24 h. The cells were collected, resuspended in cold RIPA buffer containing protease and phosphatase inhibitors and placed on ice for 5 min followed by centrifugation at 14,000× g for 15 min at 4 °C. 25 μg of total proteins was separated on the 12% SDS-PAGE gels and transferred onto nitrocellulose membranes, followed by the blocking using skim milk/bovine serum albumin for 1 h. Membranes were incubated with primary antibodies (cleaved PARP, cleaved caspase-3, p-p53, p21, CDK2, CDK4, CDK 6, cyclin D1, cyclin A2, cyclin B, cyclin E and GAPDH, Cell Signaling) at 4 °C overnight. Subsequently, the membranes were washed with TBST (0.05% Tween 20 in TBS) and incubated with corresponding anti-mouse/rabbit immunoglobulin G-horseradish peroxidase-conjugated secondary antibody (Cell Signaling, Danvers, MA, USA) at room temperature for 1 h. Then, the membranes were washed with TBST. The bands was detected by using enhanced chemiluminescence (ECL) detection kit (BioRad, Hercules, CA, USA) and visualized using gel documentation system. Protein bands were analyzed quantitatively and qualitatively with Vilber Lourmart.
On the technique in general: Immunoblotting shows a protein as a band on a membrane.

Another data set relates to cyclin D1. Briefly: Western blot, cyclin D1 in HCT116 cells. In kind it is cell-based, human. The following applies: HCT116, 0.75, 1.5 and 3.0 µg/mL, 24 h. The protocol:
as §3

In a further data set the test system is cyclin E2. As to the kind of experiment: Western blot, cyclin E2 in HCT116 cells. The class given is cell-based, human. The following applies: HCT116, 0.75, 1.5 and 3.0 µg/mL, 24 h. The procedure:
as §3

Data set [3] deals with HCT116 cells. As to the kind of experiment: Externalization of phosphatidylserine, Annexin V-FITC/PI staining, flow cytometry. The class given is cell-based, human. The conditions noted are these: 24 h. The procedure:
1 × 10^6 HCT116 cells were plated in 60 mm^2 culture dishes and exposed to different concentrations of DET (0.75, 1.5 and 3.0 µg/mL) for 24 h. Subsequently, cells were washed with PBS, resuspended in 1× Annexin V binding buffer and stained with Annexin V-fluorescein-isothiocyanate (FITC) (BD) and propidium iodide (PI) in the dark at room temperature for 15 min. 1× binding buffer was then added into each tube. The apoptotic and necrotic cell populations were then examined by flow cytometry. The fluorescence intensity was detected in FL1-A (x-axis) and FL2-A channel (y-axis).
(In general: Flow cytometry measures light scatter and fluorescence of single cells or particles in a stream.)

Data set [4] deals with HCT116 cells. As to the kind of experiment: Cell cycle distribution by PI flow cytometry. In kind it is cell-based, human. The conditions noted are these: 24 h. The protocol:
1 × 10^6 HCT116 cells were plated in 60 mm^2 culture dishes and exposed to different concentrations of DET (0.75, 1.5 and 3.0 µg/mL) for 24 h. The cells were harvested and centrifuged at 300× g at room temperature. The cells were then resuspended in 1 mL of buffer solution followed by centrifugation and washing with buffer solution. Subsequently, 250 µL of Solution A (trypsin buffer) was added and incubated for 10 min, followed by addition of 100 µL of Solution B (trypsin inhibitor and RNase buffer) and incubated at room temperature for 10 min. 200 µL of cold PI solution was added, gently mixed and incubated on ice for 10 min in the dark. Finally, samples were assessed by using flow cytometry (BD, San Jose, CA, USA).

The next data set concerns CDK4. Briefly: Western blot, CDK4 in HCT116 cells. The class given is cell-based, human. The conditions noted are these: HCT116, 0.75, 1.5 and 3.0 µg/mL, 24 h. The procedure:
as §3

Data set [5] has as its system HCT116 cells. As to the kind of experiment: Nuclear morphological changes, Hoechst 33342/PI staining. The conditions noted are these: HCT116, 0.75, 1.5 and 3.0 µg/mL, 24 h, dose-dependent. The class given is cell-based, human. The procedure:
1 × 10^6 HCT116 cells were plated in 60 mm^2 culture dishes and treated with increasing concentrations of DET (0.75, 1.5 and 3.0 µg/mL) while negative control was treated with the vehicle DMSO for 24 h. Then, the cells were collected, washed with PBS and proceed to staining with Hoechst 33342 (40 µg/mL) and propidium iodide solution (10 µg/mL) at room temperature in the dark for 30 min. The cells were then examined by inverted fluorescence microscopy (DM1600B, Leica, Wetzlar, Germany).

A further data set has as its system cyclin B1. Briefly: Western blot, cyclin B1 in HCT116 cells. The conditions noted are these: HCT116, 0.75, 1.5 and 3.0 µg/mL, 24 h. In kind it is cell-based, human. The procedure:
as §3

The subject of the next data set is cleaved caspase-3. Briefly: Western blot, cleaved caspase-3 in HCT116 cells. In kind it is cell-based, human. The following applies: HCT116, 0.75, 1.5 and 3.0 µg/mL, 24 h. The protocol: as §3
In another data set the test system is phospho-p53. Briefly: Western blot, phospho-p53 in HCT116 cells. The class given is cell-based, human. The conditions noted are these: HCT116, 0.75, 1.5 and 3.0 µg/mL, 24 h. The protocol:
as §3

The test system of another data set is cyclin A2. Briefly: Western blot, cyclin A2 in HCT116 cells. The conditions noted are these: HCT116, 0.75, 1.5 and 3.0 µg/mL, 24 h. In kind it is cell-based, human. The procedure:
as §3

The test system of another data set is CDK2. Briefly: Western blot, CDK2 in HCT116 cells. The class given is cell-based, human. The following applies: HCT116, 0.75, 1.5 and 3.0 µg/mL, 24 h. The protocol: as §3
The subject of a further data set is cleaved PARP. Briefly: Western blot, cleaved PARP in HCT116 cells. The class given is cell-based, human. The following applies: HCT116, 0.75, 1.5 and 3.0 µg/mL, 24 h. The protocol:
as §3

The subject of a further data set is CDK6. Briefly: Western blot, CDK6 in HCT116 cells. The class given is cell-based, human. The following applies: HCT116, 0.75, 1.5 and 3.0 µg/mL, 24 h. The procedure: as §3
[6] abbreviates: 72 h, value in brackets after the µg/mL value.
The mark [7] stands for this setting: CCD841-CoN normal cell line, mean ± S.E. (n = 9).

`O=c1[nH]cc(F)c(=O)[nH]1` [5-Fluorouracil, 5-fluorouracil, reference compound]: the IC50 – broadly, the concentration that gives 50% inhibition – in data set [1] (72 h, mean ± S.E. (n = 9)) was 0.73 ± 0.02 µg/mL; in [1] (setting [6]) it was 5 µM; in data set [2] (setting [7]), more than 25 µg/mL.
As for `C=C(C)C(=O)O[C@H]1CC2=C[C@@H](C/C(C)=C/[C@H]3OC(=O)C(=C)[C@H]13)OC2=O` [Deoxyelephantopin, deoxyelephantopin], the p21 expression level result in the data set with p21 is “upregulated”. For the same compound, the “cyclin D1 protein expression” value with cyclin D1 is on record as “significant downregulation”. Moreover, the cell viability result in data set [1] was “dose-dependent reduction of cell viability”. For the same compound, the IC50 in data set [1] (24 h) is 2.36 ± 0.02 µg/mL; in data set [1] (48 h) it was 0.9 ± 0.02 µg/mL; in data set [1] (72 h, mean ± S.E. (n = 9)), 0.73 ± 0.01 µg/mL; in [1] (setting [6]), 2.12 µM; in data set [2] (setting [7]), 21.7 ± 0.92 µg/mL; in [2] (CCD841CoN normal cells, value in brackets after the µg/mL value), 60 µM. Besides, the “cyclin E2 protein expression” value in the data set on cyclin E2 is given as “significant downregulation”. For the same compound, the “accumulation of apoptotic cells compared to untreated control” value with HCT116 cells [3] (HCT116, 0.75 μg/mL) is given as “significant accumulation of apoptotic cells”. Further, the “proportion of apoptotic cells (early and late apoptotic phases)” value in the data set with HCT116 cells [3] (HCT116, 3.0 µg/mL) is given as 63.63% ± 2.03%. For the same compound, the necrotic cell death result in the data set on HCT116 cells [3] (HCT116, 0.75–3.0 µg/mL) is “did not significantly induce necrotic cell death”. Further, the viability at 0.75 µg/mL in the data set with HCT116 cells [3] (Homo sapiens, HCT-116, HCT116, 0.75 μg/mL, representative plot, read-out: Q1-LL cells (annexin−/PI−, viable)) turned out to be 74.8%. The viability at 1.5 µg/mL in the data set with HCT116 cells [3] (Homo sapiens, HCT-116, HCT116, 1.50 μg/mL, representative plot, read-out: Q1-LL cells (annexin−/PI−, viable)) was 59.8%. Also, the viability at 3 µg/mL in the data set on HCT116 cells [3] (Homo sapiens, HCT-116, HCT116, 3.00 μg/mL, representative plot, read-out: Q1-LL cells (annexin−/PI−, viable)) was found to be 34.1%. In data set [2] (IC50 at 72 h), the “difference in cytotoxicity, CCD841CoN normal cells compared to HCT116 cells” value is 30 fold. In addition, the “cells in the S phase” value with HCT116 cells [4] (HCT116, 1.5 µg/mL) is recorded as 28.17% ± 0.23%; in the data set on HCT116 cells [4] (HCT116, 3.0 µg/mL), 29.25% ± 0.21%. In addition, in the data set on HCT116 cells [4] (HCT116, 0.75, 1.5 and 3.0 µg/mL), the cell cycle progression entry is “cell cycle arrest at S phase”. The CDK4 protein expression entry in the data set with CDK4 is “significant downregulation”. Moreover, the “apoptotic morphological changes (chromatin condensation, cell shrinkage, DNA fragmentation)” value with HCT116 cells [5] was “apoptosis-inducing effect”. The “cyclin B1 protein expression” value in the data set on cyclin B1 is given as “significant downregulation”. For the same compound, the “cleaved caspase-3 protein expression” value in the data set on cleaved caspase-3 is listed as “dose-dependent upregulation”. Further, the phospho-p53 expression level result with phospho-p53 is listed as “upregulated”. The “cyclin A2 protein expression” value in the data set with cyclin A2 is on record as “significant downregulation”. For the same compound, the CDK2 protein expression result with CDK2 is reported as “significant downregulation”. In addition, the “cleaved PARP protein expression” value in the data set with cleaved PARP was “dose-dependent upregulation”. Besides, in the data set on CDK6, the CDK6 protein expression result is “remain constant”.
Take `C=C(C)C(=O)O[C@H]1CC2=C[C@H](C/C(C)=C/[C@H]3OC(=O)C(=C)[C@H]13)OC2=O` [Isodeoxyelephantopin, isodeoxyelephantopin]: the cell viability entry in data set [1] is recorded as “dose-dependent reduction of cell viability”. Besides, the half-inhibitory concentration (IC50) is 0.88 ± 0.02 µg/mL in data set [1] (72 h, mean ± S.E. (n = 9)) and 2.56 µM in data set [1] (setting [6]).

Values taken from paper PMC6274388, “Deoxyelephantopin from Elephantopus scaber Inhibits HCT116 Human Colorectal Carcinoma Cell Growth through Apoptosis and Cell Cycle Arrest” (Molecules, 2016).
